# Laboratory results: patent publication US11084796B2, “Heterocyclic derivatives for the treatment of RSV” (GEORGIA STATE UNIVERSITY RESEARCH FOUNDATION, INC., priority 2016, dated 2021)
# Tested on: RSV
# Experiment: Potency range (EC50 values) of C series compounds against RSV
# Type: cell-based
# Details: human respiratory syncytial virus
# Protocol: Two-fold serial dilutions of hit candidates were prepared in 384-well plates in three replicates each using the Nimbus liquid handler. BEAS-2B cells (8×10^3/well) were then plated as before, serial dilutions transferred using the pin-tool, and cells infected with recombinant virus strains expressing distinct luciferase reporter proteins or left uninfected for cell viability assessment. Reporter signals were recorded as outlined above. To determine cell viability, PrestoBlue substrate (life technologies) was added after 40-hour incubation of cells at 37° C. (5 μl/well) and top-read fluorescence (excitation 560 nm; emission 590 nm; instrument gain 85) recorded after 45 minutes of incubation at 37° C. using the H1 synergy plate reader. Four-parameter variable slope regression modeling was applied to determine 50% active (EC50) and toxic (CC50) concentrations.
row,Compound,EC50 [µM]
1,"O=C(CN1C(=O)C(C(=O)N2CCCCC2)Sc2ccccc21)NC1CCCCC1 (centres unmarked) [AVG-044, N-cyclohexyl-2-(3-oxo-2-(piperidine-1-carbonyl)-2H-benzo[b][1,4]thiazin-4(3H)-yl) acetamide]",1 to 10
2,O=C(CN1C(=O)C(C(=O)N2CCCCC2)Sc2ccccc21)NC1CCOCC1 (centres unmarked) [AVG-045],> 20
3,O=C(CN1C(=O)C(C(=O)N2CCCCC2)Sc2ccccc21)NC1CCNCC1 (centres unmarked) [AVG-046],> 20
4,CN1CCC(NC(=O)CN2C(=O)C(C(=O)N3CCCCC3)Sc3ccccc32)CC1 (centres unmarked) [AVG-047],> 20
5,CC(C)NC(=O)CN1C(=O)C(C(=O)N2CCCCC2)Sc2ccccc21 (centres unmarked) [AVG-048],> 20
6,CC1CCC(NC(=O)CN2C(=O)C(C(=O)N3CCCCC3)Sc3ccccc32)CC1 (centres unmarked) [AVG-049],1 to 10
7,CC1(C)CCC(NC(=O)CN2C(=O)C(C(=O)N3CCCCC3)Sc3ccccc32)CC1 (centres unmarked) [AVG-050],1 to 10
8,O=C(CN1C(=O)C(C(=O)N2CCCCC2)Sc2ccccc21)NC1CCCC1 (centres unmarked) [AVG-051],1 to 10
9,Cc1ccccc1NC(=O)CN1C(=O)C(C(=O)N2CCCCC2)Sc2ccccc21 (centres unmarked) [AVG-052],1 to 10
10,Cc1cccc(NC(=O)CN2C(=O)C(C(=O)N3CCCCC3)Sc3ccccc32)c1 (centres unmarked) [AVG-053],> 20
11,"O=C(CN1C(=O)C(C(=O)N2CCOCC2)Sc2ccccc21)NC1CCCCC1 (centres unmarked) [AVG-054, N-cyclohexyl-2-(2-(morpholine-4-carbonyl)-3-oxo-2H-benzo[b][1,4]thiazin-4(3H)-yl) acetamide]",1 to 10
12,O=C(CN1C(=O)C(C(=O)N2CCNCC2)Sc2ccccc21)NC1CCCCC1 (centres unmarked) [AVG-055],> 20
13,CN1CCN(C(=O)C2Sc3ccccc3N(CC(=O)NC3CCCCC3)C2=O)CC1 (centres unmarked) [AVG-056],10 to 20
14,CN(C)C(=O)C1Sc2ccccc2N(CC(=O)NC2CCCCC2)C1=O (centres unmarked) [AVG-057],1 to 10
15,O=C(CN1C(=O)C(C(=O)NC2CCCCC2)Sc2ccccc21)NC1CCCCC1 (centres unmarked) [AVG-058],1 to 10
16,CN(C(=O)CN1C(=O)C(C(=O)N2CCCCC2)Sc2ccccc21)C1CCCCC1 (centres unmarked) [AVG-059],> 20
17,O=C(CN1C(=O)C(C(=O)N2CCCCC2)Sc2ccccc21)N1CCCCC1 (centres unmarked) [AVG-060],> 20
18,O=C(CN1C(=O)C(C(=O)N2CCCCC2)Sc2c(Cl)cccc21)NC1CCCCC1 (centres unmarked) [AVG-061],1 to 10
19,O=C(CN1C(=O)C(C(=O)N2CCCCC2)Sc2cc(Cl)ccc21)NC1CCCCC1 (centres unmarked) [AVG-062],0.1 to 1
20,O=C(CN1C(=O)C(C(=O)N2CCCCC2)Sc2ccc(Cl)cc21)NC1CCCCC1 (centres unmarked) [AVG-063],1 to 10

row,Compound,EC50 [µM]
1,O=C(CN1C(=O)C(C(=O)N2CCCCC2)Sc2cccc(Cl)c21)NC1CCCCC1 (centres unmarked) [AVG-064],10 to 20
2,O=C(CN1C(=O)C(C(=O)NC2CCOCC2)Sc2ccccc21)NC1CCCCC1 (centres unmarked) [AVG-083],> 20
3,O=C(CN1C(=O)C(C(=O)NC2CCNCC2)Sc2ccccc21)NC1CCCCC1 (centres unmarked) [AVG-084],> 20
4,CN1CCC(NC(=O)C2Sc3ccccc3N(CC(=O)NC3CCCCC3)C2=O)CC1 (centres unmarked) [AVG-085],> 20
5,CCCCNC(=O)C1Sc2ccccc2N(CC(=O)NC2CCCCC2)C1=O (centres unmarked) [AVG-086],10 to 20
6,CC(C)NC(=O)C1Sc2ccccc2N(CC(=O)NC2CCCCC2)C1=O (centres unmarked) [AVG-087],10 to 20
7,O=C(C1Sc2ccccc2N(Cc2nc3ccccc3o2)C1=O)N1CCCCC1 (centres unmarked) [AVG-111],> 20
8,O=C(C1Sc2ccccc2N(Cc2nc3ccccc3[nH]2)C1=O)N1CCCCC1 (centres unmarked) [AVG-112],10 to 20
9,NC(=O)CN1C(=O)C(C(=O)N2CCCCC2)Sc2ccccc21 (centres unmarked) [AVG-113],> 20
10,O=C(CN1C(=O)C(C(=O)N2CCCCC2)Sc2ccccc21)NC1CC1 (centres unmarked) [AVG-114],> 20
11,O=C(CN1C(=O)C(C(=O)N2CCCCC2)Sc2ccccc21)NCc1ccccc1 (centres unmarked) [AVG-137],1 to 10
12,CC(NC(=O)CN1C(=O)C(C(=O)N2CCCCC2)Sc2ccccc21)c1ccccc1 (centres unmarked) [AVG-138],1 to 10
13,CC(C)(NC(=O)CN1C(=O)C(C(=O)N2CCCCC2)Sc2ccccc21)c1ccccc1 (centres unmarked) [AVG-139],1 to 10
14,CC(C)(C)NC(=O)CN1C(=O)C(C(=O)N2CCCCC2)Sc2ccccc21 (centres unmarked) [AVG-140],1 to 10
15,CC(C)(C)NC(=O)C1Sc2ccccc2N(CC(=O)NC2CCCCC2)C1=O (centres unmarked) [AVG-141],1 to 10
16,O=C(CN1C(=O)C(C(=O)NCc2ccccc2)Sc2ccccc21)NC1CCCCC1 (centres unmarked) [AVG-142],10 to 20
17,CC(NC(=O)C1Sc2ccccc2N(CC(=O)NC2CCCCC2)C1=O)c1ccccc1 (centres unmarked) [AVG-143],> 20
18,CC(C)(NC(=O)C1Sc2ccccc2N(CC(=O)NC2CCCCC2)C1=O)c1ccccc1 (centres unmarked) [AVG-144],1 to 10
19,COc1cccc2c1SC(C(=O)N1CCCCC1)C(=O)N2CC(=O)NC1CCCCC1 (centres unmarked) [AVG-145],1 to 10
20,COc1ccc2c(c1)SC(C(=O)N1CCCCC1)C(=O)N2CC(=O)NC1CCCCC1 (centres unmarked) [AVG-146],1 to 10

row,Compound,EC50 [µM]
1,COc1ccc2c(c1)N(CC(=O)NC1CCCCC1)C(=O)C(C(=O)N1CCCCC1)S2 (centres unmarked) [AVG-147],10 to 20
2,COc1cccc2c1N(CC(=O)NC1CCCCC1)C(=O)C(C(=O)N1CCCCC1)S2 (centres unmarked) [AVG-148],10 to 20
3,O=C(CN1C(=O)C(C(=O)N2CCCCC2)Sc2cc(Br)ccc21)NC1CCCCC1 (centres unmarked) [AVG-149],1 to 10
4,O=C(CN1C(=O)C(C(=O)N2CCCCC2)Sc2cc(F)ccc21)NC1CCCCC1 (centres unmarked) [AVG-150],1 to 10
5,Cc1ccc2c(c1)SC(C(=O)N1CCCCC1)C(=O)N2CC(=O)NC1CCCCC1 (centres unmarked) [AVG-151],10 to 20
6,CCc1ccc2c(c1)SC(C(=O)N1CCCCC1)C(=O)N2CC(=O)NC1CCCCC1 (centres unmarked) [AVG-152],1 to 10
7,CC(C)c1ccc2c(c1)SC(C(=O)N1CCCCC1)C(=O)N2CC(=O)NC1CCCCC1 (centres unmarked) [AVG-153],1 to 10
8,O=C(CN1C(=O)C(C(=O)N2CCCCC2)Sc2cc(-c3ccccc3)ccc21)NC1CCCCC1 (centres unmarked) [AVG-154],> 20
9,O=C(CN1C(=O)C(C(=O)N2CCCCC2)Sc2cnccc21)NC1CCCCC1 (centres unmarked) [AVG-155],1 to 10
10,O=C(CN1C(=O)C(C(=O)N2CCCCC2)Sc2cc(C(F)(F)F)ccc21)NC1CCCCC1 (centres unmarked) [AVG-156],1 to 10
11,C=C(C)c1ccc2c(c1)SC(C(=O)N1CCCCC1)C(=O)N2CC(=O)NC1CCCCC1 (centres unmarked) [AVG-215],1 to 10
12,O=C(CN1C(=O)C(C(=O)N2CCCCC2)Sc2ccccc21)NCC1CCCCC1 (centres unmarked) [AVG-216],1 to 10
13,O=C(CN1C(=O)C(C(=O)N2CCCCC2)Sc2cc(Cl)ccc21)NCC1CCCCC1 (centres unmarked) [AVG-217],1 to 10
14,O=C(CN1C(=O)C(C(=O)NC2CCCCC2)Sc2cc(Cl)ccc21)NC1CCCCC1 (centres unmarked) [AVG-218],1 to 10
15,Cc1ccccc1NC(=O)CN1C(=O)C(C(=O)N2CCCCC2)Sc2cc(Cl)ccc21 (centres unmarked) [AVG-219],0.1 to 1
16,O=C(CN1C(=O)C(C(=O)N2CCCCC2)Sc2ccccc21)Nc1ccccc1Cl (centres unmarked) [AVG-220],1 to 10
17,COc1ccccc1NC(=O)CN1C(=O)C(C(=O)N2CCCCC2)Sc2ccccc21 (centres unmarked) [AVG-221],1 to 10
18,O=C(CN1C(=O)C(C(=O)N2CCCCC2)Sc2ccccc21)Nc1cccnc1 (centres unmarked) [AVG-223],10 to 20
19,O=C(CN1C(=O)C(C(=O)N2CCCCC2)Sc2ccccc21)Nc1ccncc1 (centres unmarked) [AVG-224],10 to 20
